Columns and labels:
[1] = tested on: Trp aptamer (Cy5-labelled, Trp aptamer sensor) (DNA, aptamer) AGCACGTTGGTTAGGTCAGGTTTGGGTTTCGTGC; assay: strand-displacement fluorescence titration (Langmuir fit); conditions: 2.7 mM KCl, 5 mM MgCl2, 500 mM NaCl; TAB pH 7.4, 25 °C; displaces CS-10-BHQ2 quencher strand; 0.5 μM aptamer, 1.25 μM CS-10; apparent
[2] = tested on: Trp aptamer (Cy5-labelled, Trp aptamer sensor) (DNA, aptamer) AGCACGTTGGTTAGGTCAGGTTTGGGTTTCGTGC; assay: strand-displacement fluorescence; conditions: 2.7 mM KCl, 5 mM MgCl2, 500 mM NaCl
[3] = TAB pH 7.4, displaces CS-10-BHQ2 quencher strand, distinguished from its precursor

SMILES: N[C@@H](Cc1c[nH]c2ccccc12)C(=O)O
- Ksens [1]: 3.3 [2.8–4.6, 95% credible region] mM

SMILES: N[C@H](Cc1c[nH]c2ccccc12)C(=O)O
- binding ([2]; TAB pH 7.4, 25 °C, displaces CS-10-BHQ2 quencher strand, 5 mM compound): yes

SMILES: N[C@@H](Cc1c[nH]c2ccc(F)cc12)C(=O)O
- binding [2, 3]: yes

SMILES: N[C@@H](Cc1ccccc1)C(=O)O
- binding ([2]; TAB pH 7.4, 25 °C, CS-10-BHQ2 quencher strand, highest concentration 5 mM): no

SMILES: COc1ccc2[nH]cc(C[C@H](N)C(=O)O)c2c1
- binding [2, 3]: yes
